# Assay results reported in ChEMBL document CHEMBL5131391, “One-pot three-component synthesis of novel pyrazolo[3,4-b]pyridines as potent antileukemic agents” (Eur J Med Chem, 2022).
# System: K562
# Assay: Antiproliferative activity against human K562 cells assessed as growth inhibition measured after 48 hrs by NCI protocol based SRB assay
# Assay type: functional
smiles,measurement,setting,value
N#Cc1c(-c2ccccc2)nc2c(c(-c3ccccc3)nn2-c2ccccc2)c1-c1ccc(O)cc1,GI50,,2680 nM
same,CC50,read-out: LC50 (the source's name),> 100000 nM
